According to patent US6300350A, “Treatment of emphysema using RARy selective retinoid agonists” (priority 2000, dated 2001):

Experiments:
elastase damaged rats = assay: Pulmonary gas exchange in elastase damaged rats; format: in vivo
Method: Pulmonary and arterial blood gases were determined in elastase damaged rats±retinoid treatment prior to termination of study. Rats were placed under deep anesthesia using pentobarbital (50 mg/kg, i.p. and a tracheal cannula (PE 240) was inserted. The rats were artificially ventilated (f=90, TV=approx 0.5 ml/100 g BW) using a small animal respiratory pump (Harvard). For each rat, the pump parameters were adjusted to establish an arterial CO2 level for the pulmonary artery (PCO2) of 30-35 torr. Arterial blood samples (approx 0.2 ml) were taken from the abdominal aorta (AO2) and immediately analyzed by pHOx blood gas. Data are presented as percent (%) recovery relative to elastase +vehicle treated rats.

RARβ = target: T1, RARβ (Homo sapiens, UniProt P10826); assay: Transactivation, RARβ; format: cell-based; conditions: Table II
T1 sequence (P10826 1-455): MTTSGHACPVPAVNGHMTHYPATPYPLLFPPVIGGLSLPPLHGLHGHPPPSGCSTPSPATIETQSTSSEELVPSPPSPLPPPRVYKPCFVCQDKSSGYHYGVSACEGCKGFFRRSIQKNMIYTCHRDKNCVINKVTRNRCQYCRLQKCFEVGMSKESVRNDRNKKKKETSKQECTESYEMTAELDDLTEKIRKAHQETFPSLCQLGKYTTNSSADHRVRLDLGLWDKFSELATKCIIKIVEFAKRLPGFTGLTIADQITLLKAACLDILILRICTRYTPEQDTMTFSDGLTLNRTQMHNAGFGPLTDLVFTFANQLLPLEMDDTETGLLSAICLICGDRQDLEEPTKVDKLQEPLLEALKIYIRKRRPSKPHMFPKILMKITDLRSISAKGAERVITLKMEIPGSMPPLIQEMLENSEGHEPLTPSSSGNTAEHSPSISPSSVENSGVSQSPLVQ
Source text: (§1) As used herein, the term "transactivation" refers to the ability of a retinoid to activate the transcription of a gene where the gene transcription is initiated by the binding of a ligand to the particular retinoic acid receptor being tested, i.e., RARα, RARβ, or RARγ. Determining the ability of a compound to transactivate a retinoic acid receptor may be performed by methods known to those of skill in the art. […] Apfel etal., Proc. Nat.

RARγ [1] = target: T2, RARγ (Homo sapiens, UniProt P13631); assay: Transactivation, RARγ; format: cell-based
T2 sequence (P13631 1-454): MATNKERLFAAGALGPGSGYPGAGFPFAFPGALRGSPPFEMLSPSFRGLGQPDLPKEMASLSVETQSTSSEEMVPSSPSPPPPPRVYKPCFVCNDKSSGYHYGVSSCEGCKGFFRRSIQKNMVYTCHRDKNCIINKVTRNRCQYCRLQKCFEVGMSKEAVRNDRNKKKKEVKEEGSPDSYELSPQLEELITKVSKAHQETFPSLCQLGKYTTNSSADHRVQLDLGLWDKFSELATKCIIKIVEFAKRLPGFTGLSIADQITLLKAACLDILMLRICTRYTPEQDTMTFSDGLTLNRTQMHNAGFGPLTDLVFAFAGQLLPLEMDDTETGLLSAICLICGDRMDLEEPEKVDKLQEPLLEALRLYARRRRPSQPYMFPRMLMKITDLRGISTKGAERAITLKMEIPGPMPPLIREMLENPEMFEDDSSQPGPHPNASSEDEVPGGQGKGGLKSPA
Source text: as §1

RARγ [2] = target: T2, RARγ; assay: Binding, RARγ (ligand binding assay)
Source text: The RARγ agonist selectivity of a compound can be determined by routine ligand binding assays known to one of skill in the art such as described in C. Apfel et al., Proc. Nat.

[3] = Plasma triglyceride levels in rats; format: in vivo; conditions: plasma, 1 mg/kg/PO daily for two weeks
Method: Experimental emphysema was induced in rats as described in Example 2. Three (3) weeks post injury animals were treated with vehicle (Capmul solution) or retinoids prepared in Capmul and dosed orally at 1, 3, and 10 mg/kg body weight. Animals were treated for 14 days prior to termination of study. Lung harvest and blood collection was performed as described in Example 2.
Quantitation of triglycerides contained in rat plasma was performed after using established procedures in a contact clinical laboratory facility. Briefly, plasma triglycerides were converted to dihdroxyacetone and H2 O2, by sequential treatment of plasma with lipase and glycerokinase according directions described by manufacturer of triglycerides/GPO kit (Boehringer Mannheim #1488872). H2 02 was quantitated calorimetrically in a Hitachi 911 Chemistry Analyzer. In rats normal triglyceride levels are 75-175 mg/dl.
Dosage was at 1 mg/kg/PO daily for two weeks. […] Therefore, it appears that RARα selective activity is linked to elevated triglyceride levels.

tropoelastin gene = assay: RAR transactivation of steady state tropoelastin gene in normal human lung fibroblasts (CCD-16Lu); format: cell-based
Method: Transactivation of the tropoelastin gene in normal human lung fibroblasts (CCD-16Lu) was performed as described below. Cells were grown to confluence at which time fresh media +/- ATRA or selective retiniod was added to the basal culture. ATRA and/or selective retiniods were used at a concentration of 1×10^-7 M. The cell layer was lysed using a guanidinium-based buffer (TRIZOL/Sigma) for RNA extraction and analysis. Amplification of tropoelastin and GAPDH RNA was performed by standard quantitative RT-PCR (TAQMAN, Perken/Elmer) using appropriate selective primers. Tropo-elastin gene expression was normalized to the expression of standard house-keeping gene (GAPDH).
Samples were run in triplicate.

RARα = target: T3, RARα (Homo sapiens, UniProt P10276); assay: Transactivation, RARα; format: cell-based; conditions: Table II
T3 sequence (P10276 1-462): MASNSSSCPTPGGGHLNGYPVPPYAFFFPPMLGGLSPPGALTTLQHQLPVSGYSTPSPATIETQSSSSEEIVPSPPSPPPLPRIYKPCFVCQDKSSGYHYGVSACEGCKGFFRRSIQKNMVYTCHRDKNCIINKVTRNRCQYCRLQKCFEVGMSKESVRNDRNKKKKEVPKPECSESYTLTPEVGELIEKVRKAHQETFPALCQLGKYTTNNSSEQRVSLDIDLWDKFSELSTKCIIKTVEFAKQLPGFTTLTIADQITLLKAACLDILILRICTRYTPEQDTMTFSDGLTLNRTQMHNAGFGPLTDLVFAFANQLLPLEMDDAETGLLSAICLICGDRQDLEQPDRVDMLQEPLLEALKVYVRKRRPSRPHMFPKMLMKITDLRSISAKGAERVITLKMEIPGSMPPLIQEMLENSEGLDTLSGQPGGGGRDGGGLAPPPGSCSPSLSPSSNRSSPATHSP
Source text: as §1

CCCCCCc1cc2c(cc1/C=C/c1ccc(C(=O)O)cc1)C(C)(C)CCC2(C)C [RAR Agonist 3]
PCO2, recovery relative to elastase + vehicle treated rats (elastase damaged rats; 0.01 mg/kg): 84.6% | PO2, recovery relative to elastase + vehicle treated rats (elastase damaged rats; 0.01 mg/kg): 49.8% | AO2, recovery relative to elastase + vehicle treated rats (elastase damaged rats; abdominal aorta, 0.01 mg/kg): 100% | gas exchange (in words) (elastase damaged rats; elastase-damaged rats): more effective and more potent than the pan agonist (ATRA) | EC50 (RARβ): 0.088 µM | EC50 (RARγ [1]; Table II): 0.015 µM | EC50 (RARγ [1]; Table III): 0.015 µM | IC50 (RARγ [2]; Table II): 0.21 µM | IC50 (RARγ [2]; Table III): 0.21 µM | triglyceride levels (in words) [3]: do not cause elevation in the triglyceride levels | [Triglyceride] ([3]; normal rat 75-175 mg/dl): 92 mg/dL | Tropo-elastin Expression (tropoelastin gene; CCD-16Lu, 1×10^-7 M, RT-PCR, triplicate, untreated control 30.90): 68.58 (Elastin/GAPDH) × 10^5 | tropoelastin gene induction (in words) (tropoelastin gene; human lung fibroblasts, compared to the control): markedly induces tropoelastin gene induction | EC50 (RARα): 1 µM
